Measurements reported in patent US11413301B2, “Composition comprising sea cucumber extract as effective ingredient for preventing and treating Bruch's membrane dysfunction-related disease” (priority 2016, dated 2022).

What was measured:
human Bruch's membrane = assay: Hydraulic conductivity of isolated Bruch's membrane (open-type Ussing chamber, fluid transport under hydrostatic pressure)
Protocol: First, to confirm the waste transport ability, the hydraulic conductivity of the Bruch's membrane isolated from a donated eye was measured. The isolated Bruch's membrane was mounted in an open-type Ussing chamber to measure a quantitative change in fluid under hydrostatic pressure and calculate a change in hydraulic conductivity (FIGS. 5B and 5C). […] The data of FIG. 5D is expressed using a semi-log plot with the logarithmic scale on the y-axis to convert exponential decay to a linear plot. To maintain the function of photoreceptor cells, the Bruch's membrane requires a minimal hydraulic conductivity function, which represents a failure line. […] All of the hydraulic conductivities measured for the peripheral regions of the 11 macular degeneration patients may be observed to be below the mean regression line (refer to the black circle and the red line in FIG. 5E), showing that, in the peripheral region, rather than the macular region, the decrease in the material transport function progresses to a serious condition. […]
In addition, to investigate the improvement of the transport function of the Bruch's membrane according to the dose of the sea cucumber extract, Bruch's membranes isolated from the eyes of four donors ranging from 69 to 84 years of age were measured, a dose response curve for the improvement of hydraulic conductivity was expressed. […]

[1] = tested on: MMP enzyme secreted from a human Bruch's membrane; assay: MMP secretion from Bruch's membrane incubated with Frondoside A (zymography); conditions: Frondoside A 167 μg/mL, 30 hours
Protocol: Zymography was performed using the solution incubated for 30 hours in the measurement of hydraulic conductivity in Example 10. Specifically, a Bruch's membrane was incubated with a Tris buffer solution as a control or a Frondoside A solution (167 μg/mL) for 30 hours, 50 μL of the resulting solution was mixed with 50 μL of the SDS sample buffer, and then 30 μL of the resulting mixture was loaded on a gel to measure an MMP enzyme secreted from a human Bruch's membrane.

[2] = tested on: lipids of Bruch's membrane; assay: Lipid removal from Bruch's membrane by Frondoside A (lipid extracted from membrane, TLC); set-up: species or system human; conditions: Frondoside A 167 μg/mL, membrane after hydraulic conductivity measurement
Protocol: To confirm the lipid removal effect of Frondoside A, after the measurement of hydraulic conductivity in Example 10, the Bruch's membrane was cut into a piece having a diameter of 6 mm, and then a lipid was extracted using a CM solution (chloroform:methanol=2:1), followed by evaporating the solvent. After 50 μL of a CM solution was added thereto again, 40 μL of the resulting solution was dropped on a silica gel TLC plate, and the type and amount of the lipid were analyzed.

SMILES: COC1C(O)C(CO)OC(OC2C(O)COC(OC3C(C)OC(OC4C(O[C@H]5CC[C@]6(C)C7CCC89C(=O)O[C@@](C)(CCCC(C)C)[C@H]8[C@@H](OC(C)=O)C[C@@]9(C)C7=CC[C@H]6C5(C)C)OCC(OS(=O)(=O)[O-])C4O)C(OC4OCC(O)C(O)C4O)C3O)C2O)C1O.[Na+] (stereo partly shown) [Frondoside A]
- effect on the improvement of hydraulic conductivity relative to the control (human Bruch's membrane; Frondoside A 167 μg/mL, control Tris buffer): ≥ 1.6 fold
- hydraulic conductivity Fold-change Mean ± SD (n) (human Bruch's membrane; Frondoside A 167 μg/ml): 1.65 ± 0.2 (3) Fold-change
- secretion of Pro-MMP9 bound to the membrane [1]: an enormous amount of Pro-MMP9 bound to the membrane was secreted
- removal of Ch from the Bruch's membrane [2]: did not have an effect
- removal of ChE from the Bruch's membrane [2]: did not have an effect
- removal of TG from the Bruch's membrane [2]: did not have an effect
- removal of phosphatidylcholine from the Bruch's membrane [2]: had an effect of removing phosphatidylcholine
